Laboratory results taken from PubChem BioAssay AID1259407 (Chemical Carcinogenesis Research Information System (CCRIS), 2018).
The source made the active and inactive calls. How the calls were made is not given here.

Tested on: CCRIS mutagenicity, Ames/micronucleus/aberration tests
Assay: CCRIS mutagenicity studies

In the case of `COP(=O)(OC)C(O)C(Cl)(Cl)Cl` (stereo not drawn), the mutagenic call (End Point: IN VIVO MICRONUCLEUS, Test System: PREIMPLANTATION EMBRYOS, Species: MOUSE, Strain/Sex: ICR FEMALE/EMBRYO, Route: MATERNAL SINGLE IP DOSE, EMBRYO HARVEST ON G.D 3) is reported as “active; positive”, the mutagenic call (End Point: In vivo micronucleus, Test System: Micronucleated, binucleated and multinucleated hepatocytes, Species: Mouse, Strain/Sex: ddY/Male, Route: Intravenous) is reported as “active; positive for binucleated and multinucleated cells when agent administered after” and the mutagenic call (Test System: AMES SALMONELLA TYPHIMURIUM, Strain/Indicator: TA97, Metabolic Activation: NONE, Method: SPOT TEST) is reported as “inactive; negative”. The mutagenic call (Test System: AMES SALMONELLA TYPHIMURIUM, Strain/Indicator: TA97, Metabolic Activation: NONE, Method: STANDARD PLATE) was “inactive; negative”, the mutagenic call (Test System: AMES SALMONELLA TYPHIMURIUM, Strain/Indicator: TA97, Metabolic Activation: RAT, LIVER, S-9, NAPHTHOFLAVONE AND PHENOBARBITAL, Method: STANDARD PLATE) was “inactive; negative” and the mutagenic call (Test System: AMES SALMONELLA TYPHIMURIUM, Strain/Indicator: TA97, Metabolic Activation: RAT, LIVER, S-9, PHENOBARBITAL AND NAPHTHOFLAVONE, Method: SPOT TEST) was “inactive; negative”. For the same molecule, the mutagenic call (Test System: AMES SALMONELLA TYPHIMURIUM, Strain/Indicator: TA98, Metabolic Activation: HAMSTER, LIVER, S-9, AROCLOR 1254 (10%), Method: PREINCUBATION) was “inactive; negative”, the mutagenic call (Test System: AMES SALMONELLA TYPHIMURIUM, Strain/Indicator: TA98, Metabolic Activation: NONE, Method: PREINCUBATION) was “inactive; negative” and the mutagenic call (Test System: AMES SALMONELLA TYPHIMURIUM, Strain/Indicator: TA98, Metabolic Activation: NONE, Method: SPOT TEST) was “inactive; negative”. The mutagenic call (Test System: AMES SALMONELLA TYPHIMURIUM, Strain/Indicator: TA98, Metabolic Activation: NONE, Method: STANDARD PLATE) was “inactive; negative”, the mutagenic call (Test System: AMES SALMONELLA TYPHIMURIUM, Strain/Indicator: TA98, Metabolic Activation: RAT, LIVER, S-9, AROCLOR 1254 (10%), Method: PREINCUBATION) was “inactive; negative” and the mutagenic call (Test System: AMES SALMONELLA TYPHIMURIUM, Strain/Indicator: TA98, Metabolic Activation: RAT, LIVER, S-9, NAPHTHOFLAVONE AND PHENOBARBITAL, Method: STANDARD PLATE) was “inactive; negative”. For the same molecule, the mutagenic call (Test System: AMES SALMONELLA TYPHIMURIUM, Strain/Indicator: TA98, Metabolic Activation: RAT, LIVER, S-9, PHENOBARBITAL AND NAPHTHOFLAVONE, Method: SPOT TEST) was “inactive; negative”, the mutagenic call (Test System: AMES SALMONELLA TYPHIMURIUM, Strain/Indicator: TA100, Metabolic Activation: HAMSTER, LIVER, S-9, AROCLOR 1254 (10%), Method: PREINCUBATION) was “inactive; negative” and the mutagenic call (Test System: AMES SALMONELLA TYPHIMURIUM, Strain/Indicator: TA100, Metabolic Activation: NONE, Method: PREINCUBATION) was “inactive; negative”. The mutagenic call (Test System: AMES SALMONELLA TYPHIMURIUM, Strain/Indicator: TA100, Metabolic Activation: NONE, Method: SPOT TEST) was “inactive; negative”, the mutagenic call (Test System: AMES SALMONELLA TYPHIMURIUM, Strain/Indicator: TA100, Metabolic Activation: NONE, Method: STANDARD PLATE) was “inactive; negative” and the mutagenic call (Test System: AMES SALMONELLA TYPHIMURIUM, Strain/Indicator: TA100, Metabolic Activation: RAT, LIVER, S-9, AROCLOR 1254 (10%), Method: PREINCUBATION) was “inactive; negative”. The mutagenic call (Test System: AMES SALMONELLA TYPHIMURIUM, Strain/Indicator: TA100, Metabolic Activation: RAT, LIVER, S-9, NAPHTHOFLAVONE AND PHENOBARBITAL, Method: FLUCTUATION TEST) was “inactive; negative”, the mutagenic call (Test System: AMES SALMONELLA TYPHIMURIUM, Strain/Indicator: TA100, Metabolic Activation: RAT, LIVER, S-9, NAPHTHOFLAVONE AND PHENOBARBITAL, Method: PREINCUBATION) was “active; positive” and the mutagenic call (Test System: AMES SALMONELLA TYPHIMURIUM, Strain/Indicator: TA100, Metabolic Activation: RAT, LIVER, S-9, NAPHTHOFLAVONE AND PHENOBARBITAL, Method: STANDARD PLATE) was “inactive; negative”. For the same molecule, the mutagenic call (Test System: AMES SALMONELLA TYPHIMURIUM, Strain/Indicator: TA100, Metabolic Activation: RAT, LIVER, S-9, PHENOBARBITAL AND NAPHTHOFLAVONE, Method: SPOT TEST) was “inactive; negative”, the mutagenic call (Test System: AMES SALMONELLA TYPHIMURIUM, Strain/Indicator: TA100, Metabolic Activation: S-9 MIX, Method: STANDARD PLATE) was “active; positive” and the mutagenic call (Test System: AMES SALMONELLA TYPHIMURIUM, Strain/Indicator: TA104, Metabolic Activation: NONE, Method: PREINCUBATION) was “active; positive”. The mutagenic call (Test System: AMES SALMONELLA TYPHIMURIUM, Strain/Indicator: TA104, Metabolic Activation: NONE, Method: STANDARD PLATE) was “inactive; negative”, the mutagenic call (Test System: AMES SALMONELLA TYPHIMURIUM, Strain/Indicator: TA104, Metabolic Activation: RAT, LIVER, S-9, NAPHTHOFLAVONE AND PHENOBARBITAL, Method: PREINCUBATION) was “active; positive” and the mutagenic call (Test System: AMES SALMONELLA TYPHIMURIUM, Strain/Indicator: TA104, Metabolic Activation: RAT, LIVER, S-9, NAPHTHOFLAVONE AND PHENOBARBITAL, Method: STANDARD PLATE) was “inactive; negative”. For the same molecule, the mutagenic call (Test System: AMES SALMONELLA TYPHIMURIUM, Strain/Indicator: TA1535, Metabolic Activation: HAMSTER, LIVER, S-9, AROCLOR 1254 (10%), Method: PREINCUBATION) was “inactive; negative”, the mutagenic call (Test System: AMES SALMONELLA TYPHIMURIUM, Strain/Indicator: TA1535, Metabolic Activation: NONE, Method: PREINCUBATION) was “inactive; negative” and the mutagenic call (Test System: AMES SALMONELLA TYPHIMURIUM, Strain/Indicator: TA1535, Metabolic Activation: NONE, Method: SPOT TEST) was “inactive; negative”. The mutagenic call (Test System: AMES SALMONELLA TYPHIMURIUM, Strain/Indicator: TA1535, Metabolic Activation: NONE, Method: STANDARD PLATE) was “inactive; negative”, the mutagenic call (Test System: AMES SALMONELLA TYPHIMURIUM, Strain/Indicator: TA1535, Metabolic Activation: RAT, LIVER, S-9, AROCLOR 1254 (10%), Method: PREINCUBATION) was “inactive; negative” and the mutagenic call (Test System: AMES SALMONELLA TYPHIMURIUM, Strain/Indicator: TA1535, Metabolic Activation: RAT, LIVER, S-9, NAPHTHOFLAVONE AND PHENOBARBITAL, Method: PREINCUBATION) was “inactive; negative”. The mutagenic call (Test System: AMES SALMONELLA TYPHIMURIUM, Strain/Indicator: TA1535, Metabolic Activation: RAT, LIVER, S-9, NAPHTHOFLAVONE AND PHENOBARBITAL, Method: STANDARD PLATE) was “inactive; negative”, the mutagenic call (Test System: AMES SALMONELLA TYPHIMURIUM, Strain/Indicator: TA1535, Metabolic Activation: RAT, LIVER, S-9, PHENOBARBITAL AND NAPHTHOFLAVONE, Method: SPOT TEST) was “inactive; negative” and the mutagenic call (Test System: AMES SALMONELLA TYPHIMURIUM, Strain/Indicator: TA1537, Metabolic Activation: HAMSTER, LIVER, S-9, AROCLOR 1254 (10%), Method: PREINCUBATION) was “inactive; negative”. For the same molecule, the mutagenic call (Test System: AMES SALMONELLA TYPHIMURIUM, Strain/Indicator: TA1537, Metabolic Activation: NONE, Method: PREINCUBATION) was “inactive; negative”, the mutagenic call (Test System: AMES SALMONELLA TYPHIMURIUM, Strain/Indicator: TA1537, Metabolic Activation: RAT, LIVER, S-9, AROCLOR 1254 (10%), Method: PREINCUBATION) was “inactive; negative” and the mutagenic call (Test System: CHINESE HAMSTER V-79, Strain/Indicator: V-79/OUABAIN, Metabolic Activation: NONE) was “inactive; negative”. The mutagenic call (Test System: E. COLI, Strain/Indicator: WP2, Metabolic Activation: NONE, Method: STANDARD PLATE) was “active; positive”, the mutagenic call (Test System: E. COLI, Strain/Indicator: WP2, Metabolic Activation: RAT, LIVER, S-9, AROCLOR 1254, Method: STANDARD PLATE) was “active; positive” and the mutagenic call (Test System: E. COLI, Strain/Indicator: WP2 UVRA, Metabolic Activation: NONE, Method: STANDARD PLATE) was “active; positive”. For the same molecule, the mutagenic call (Test System: E. COLI, Strain/Indicator: WP2 UVRA, Metabolic Activation: RAT, LIVER, S-9, AROCLOR 1254, Method: STANDARD PLATE) was “active; positive”, the mutagenic call (Test System: UDS HUMAN CELLS, Strain/Indicator: EUE LINE/THY INCORP, Metabolic Activation: NONE, Method: AUTORADIOGRAPHY) was “active; positive” and the mutagenic call (Test System: UDS HUMAN FIBROBLASTS, Strain/Indicator: THY INCORP (NON-S-PHASE), Metabolic Activation: NONE, Method: LIQUID SCINTILLATION COUNTING) was “active; positive”.

In the case of `Cc1ccc2ccc3c4ccccc4ccc3c2c1`, the mutagenic call (Test System: AMES SALMONELLA TYPHIMURIUM, Strain/Indicator: TA100, Metabolic Activation: RAT, LIVER, MICROSOMES, 3-METHYLCHRYSENE, Method: STANDARD PLATE) is reported as “inactive; negative”, the mutagenic call (Test System: AMES SALMONELLA TYPHIMURIUM, Strain/Indicator: TA100, Metabolic Activation: RAT, LIVER, MICROSOMES, AROCLOR 1254, Method: STANDARD PLATE) is reported as “active; positive” and the mutagenic call (Test System: AMES SALMONELLA TYPHIMURIUM, Strain/Indicator: TA100, Metabolic Activation: RAT, LIVER, MICROSOMES, Method: STANDARD PLATE) is reported as “inactive; negative”.
